The record followed here is patent US11479539B2, “Small molecule modulators of the BTB domain of Keap1” (MedImmune Limited, priority 2017, dated 2022).

Molecules are shown by their SMILES.

Chain of Keap1 (Q14145 whole entry): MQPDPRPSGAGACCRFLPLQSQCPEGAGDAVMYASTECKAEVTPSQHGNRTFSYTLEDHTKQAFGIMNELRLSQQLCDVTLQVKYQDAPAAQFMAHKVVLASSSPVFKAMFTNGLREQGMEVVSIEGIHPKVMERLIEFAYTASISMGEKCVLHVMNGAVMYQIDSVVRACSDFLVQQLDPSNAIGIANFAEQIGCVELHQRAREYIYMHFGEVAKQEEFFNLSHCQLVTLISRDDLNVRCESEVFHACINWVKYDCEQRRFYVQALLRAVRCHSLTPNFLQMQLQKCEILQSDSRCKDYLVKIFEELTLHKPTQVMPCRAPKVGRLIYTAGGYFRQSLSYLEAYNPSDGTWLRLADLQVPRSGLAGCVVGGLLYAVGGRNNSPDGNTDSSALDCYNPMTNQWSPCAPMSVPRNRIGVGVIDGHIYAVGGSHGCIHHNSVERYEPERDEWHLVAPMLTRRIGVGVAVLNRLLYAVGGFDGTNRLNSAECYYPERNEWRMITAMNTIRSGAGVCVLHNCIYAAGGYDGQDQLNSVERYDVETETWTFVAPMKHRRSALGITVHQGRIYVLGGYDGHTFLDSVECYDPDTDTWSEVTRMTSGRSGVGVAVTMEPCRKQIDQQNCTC

The experiment has as its target Keap1 (Homo sapiens (Human), UniProt Q14145). Nature of the experiment: HEK293 ARE luciferase assay. It is filed as cell-based. The settings on record: HEK-293 ARE firefly luciferase transiently transfected cells; 18 h incubation; mean of 1 to 20 individual measurements. The procedure, abridged: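 Keap1 inhibition read as Nrf2-driven luciferase rise: compounds dosed in 10 points up to 100 μM (0.3% DMSO) on HEK-293 ARE luciferase cells, 10,000/well, 18 h at 37 °C, then SteadyGlo luminescence. Scaled between DMSO vehicle and 30 μM tBHQ; values average 1-20 runs.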
In turn, `COC1(c2ncc(F)cc2-c2cncc(S(C)(=O)=O)c2)C=C(C#N)C(=O)C(C)(C)C1` (single isomer, unassigned) [Compound 235, 3-[5-fluoro-5′-(methylsulfonyl)[3,3′-bipyridin]-2-yl)-3-methoxy-5,5-dimethyl-6-oxocyclohex-1-ene-1-carbonitrile] displayed an EC50 of 79 nM.
In the case of `COC1(c2ncc(F)cc2-c2ccnc(C(F)(F)F)c2)C=C(C#N)C(=O)C(C)(C)C1` (single isomer, unassigned) [Compound 236, 3-[5-fluoro-2′-(trifluoromethyl)[3,4′-bipyridin]-2-yl]-3-methoxy-5,5-dimethyl-6-oxocyclohex-1-ene-1-carbonitrile], the EC50 worked out at 17 nM.
Then `COc1cncc(-c2cc(F)cnc2C2(OC)C=C(C#N)C(=O)C(C)(C)C2)c1` (single isomer, unassigned) [Compound 237, 3-(5-fluoro-5′-methoxy[3,3′-bipyridin]-2-yl)-3-methoxy-5,5-dimethyl-6-oxocyclohex-1-ene-1-carbonitrile], with 20 nM; and `COC1(c2ncc(Cl)cc2C(F)F)C=C(C#N)C(=O)C2(CC2)C1` (single isomer, unassigned) [Compound 238, 7-[5-chloro-3-(difluoromethyl)pyridin-2-yl]-7-methoxy-4-oxospiro[2.5]oct-5-ene-5-carbonitrile], with 44 nM.
As to `COC1(c2cc(C(F)(F)F)ccn2)C=C(C#N)C(=O)C(C)(C)C1` (stereo not shown) [Compound 1, 3-methoxy-5,5-dimethyl-6-oxo-3-[4-(trifluoromethyl)-2-pyridyl]cyclohexene-1-carbonitrile], the EC50 worked out at 408 nM.
`COC1(c2cccc(Br)n2)C=C(C#N)C(=O)C(C)(C)C1` (stereo not shown) [Compound 2, 3-(6-bromo-2-pyridyl)-3-methoxy-5,5-dimethyl-6-oxo-cyclohexene-1-carbonitrile] came in with an EC50 of 228 nM.
The molecule `COC1(c2ccc(C(F)(F)F)cn2)C=C(C#N)C(=O)C(C)(C)C1` (stereo not shown) [Compound 3, 3-methoxy-5,5-dimethyl-6-oxo-3-[5-(trifluoromethyl)-2-pyridyl]cyclohexene-1-carbonitrile] registered an EC50 of 424 nM.
Next, `COC1(c2nccc3ccccc23)C=C(C#N)C(=O)C(C)(C)C1` (stereo not shown) [Compound 4, 3-(1-isoquinolyl)-3-methoxy-5,5-dimethyl-6-oxo-cyclohexene-1-carbonitrile]: 1140 nM; `CC1(C)CC(O)(c2ncccc2C(F)F)C=C(C#N)C1=O` (stereo not shown) [Compound 6, 3-[3-(difluoromethyl)-2-pyridyl]-3-hydroxy-5,5-dimethyl-6-oxo-cyclohexene-1-carbonitrile]: > 10000 nM; `COC1(c2ncccc2-c2ccccc2)C=C(C#N)C(=O)C(C)(C)C1` (stereo not shown) [Compound 7, 3-methoxy-5,5-dimethyl-6-oxo-3-(3-phenyl-2-pyridyl)cyclohexene-1-carbonitrile]: 82 nM.
`COC1CN(c2cccc(C3(OC)C=C(C#N)C(=O)C(C)(C)C3)n2)C1` (stereo not shown) [Compound 8, 3-methoxy-3-[6-(3-methoxyazetidin-1-yl)-2-pyridyl]-5,5-dimethyl-6-oxo-cyclohexene-1-carbonitrile] showed an EC50 of 186 nM.
`COC1(c2ccccn2)C=C(C#N)C(=O)C(C)(C)C1` (stereo not shown) [Compound 11, 3-methoxy-5,5-dimethyl-6-oxo-3-(2-pyridyl)cyclohexene-1-carbonitrile] gave an EC50 of 85 nM.
Then `COC1(c2cccc(-n3ccnc3C)n2)C=C(C#N)C(=O)C(C)(C)C1` (stereo not shown) [Compound 12, 3-methoxy-5,5-dimethyl-3-[6-(2-methylimidazol-1-yl)-2-pyridyl]-6-oxo-cyclohexene-1-carbonitrile], with 119 nM.
Then `COC1(c2ccc(C)nc2)C=C(C#N)C(=O)C(C)(C)C1` (stereo not shown) [Compound 16, 3-methoxy-5,5-dimethyl-3-(6-methyl-3-pyridyl)-6-oxo-cyclohexene-1-carbonitrile], with 660 nM.
Consider `COC1(c2cccnc2Cl)C=C(C#N)C(=O)C(C)(C)C1` (stereo not shown) [Compound 18, 3-(2-chloro-3-pyridyl)-3-methoxy-5,5-dimethyl-6-oxo-cyclohexene-1-carbonitrile], for which the EC50 stood at 265 nM.
Regarding `COC1(c2ccccc2C(F)(F)F)C=C(C#N)C(=O)C(C)(C)C1` (stereo not shown) [Compound 19, 3-methoxy-5,5-dimethyl-6-oxo-3-[2-(trifluoromethyl)phenyl]cyclohexene-1-carbonitrile], the EC50 was found to be 1240 nM.
`COC1(c2cccc(C(F)(F)F)n2)C=C(C#N)C(=O)C(C)(C)C1` (stereo not shown) [Compound 20, 3-methoxy-5,5-dimethyl-6-oxo-3-[6-(trifluoromethyl)-2-pyridyl]cyclo-hexene-1-carbonitrile]: the EC50 is 126 nM.
Then `COC1(c2cccnc2Br)C=C(C#N)C(=O)C(C)(C)C1` (stereo not shown) [Compound 21, 3-(2-bromo-3-pyridyl)-3-methoxy-5,5-dimethyl-6-oxo-cyclohexene-1-carbonitrile], with 452 nM.
`COC1(c2ncccc2Br)C=C(C#N)C(=O)C(C)(C)C1` (stereo not shown) [Compound 22, 3-(3-bromo-2-pyridyl)-3-methoxy-5,5-dimethyl-6-oxo-cyclohexene-1-carbonitrile] registered an EC50 of 45 nM.
Turning to `CC1(C)CC(O)(c2ccc(C(F)(F)F)cn2)C=C(C#N)C1=O` (stereo not shown) [Compound 24, 3-hydroxy-5,5-dimethyl-6-oxo-3-[5-(trifluoromethyl)-2-pyridyl]cyclo-hexene-1-carbonitrile], the EC50 was > 10000 nM.
Regarding `COC1(c2cccnc2-c2cnn(C)c2)C=C(C#N)C(=O)C(C)(C)C1` (stereo not shown) [Compound 25, 3-methoxy-5,5-dimethyl-3-[2-(1-methylpyrazol-4-yl)-3-pyridyl]-6-oxo-cyclohexene-1-carbonitrile], the EC50 was 70 nM.
In the case of `COC1(c2ncc(F)cc2F)C=C(C#N)C(=O)C(C)(C)C1` (stereo not shown) [Compound 28, 3-(3,5-difluoropyridin-2-yl)-3-methoxy-5,5-dimethyl-6-oxocyclohex-1-enecarbonitrile], the EC50 came to 36 nM.
For the molecule `COC1(c2ccc(C)nc2C)C=C(C#N)C(=O)C(C)(C)C1` (stereo not shown) [Compound 29, 3-(2,6-dimethylpyridin-3-yl)-3-methoxy-5,5-dimethyl-6-oxocyclohex-1-enecarbonitrile], the response was half-maximal at 91 nM (EC50).
Molecule `COC1(c2cncc(C)n2)C=C(C#N)C(=O)C(C)(C)C1` (stereo not shown) [Compound 30, 3-methoxy-5,5-dimethyl-3-(6-methylpyrazin-2-yl)-6-oxocyclohex-1-enecarbonitrile] yielded an EC50 of 458 nM.
In the case of `CO[C@]1(c2ncsc2C)C=C(C#N)C(=O)C(C)(C)C1` [Compound 38, (S)-3-methoxy-5,5-dimethyl-3-(5-methylthiazol-4-yl)-6-oxocyclohex-1-enecarbonitrile], the EC50 amounted to 132 nM.
Next, `CO[C@]1(c2ncc(C)s2)C=C(C#N)C(=O)C(C)(C)C1` [Compound 40, (S)-3-methoxy-5,5-dimethyl-3-(5-methylthiazol-2-yl)-6-oxocyclohex-1-enecarbonitrile]: 38 nM; `CO[C@]1(c2ncc(F)cc2C(F)F)C=C(C#N)C(=O)C(C)(C)C1` [Compound 42, (3S)-3-[3-(difluoromethyl)-5-fluoropyridin-2-yl]-3-methoxy-5,5-dimethyl-6-oxocyclohex-1-ene-1-carbonitrile]: 33 nM; `COC1(c2sc(C)nc2C)C=C(C#N)C(=O)C(C)(C)C1` (stereo not shown) [Compound 46, 3-(2,4-dimethylthiazol-5-yl)-3-methoxy-5,5-dimethyl-6-oxocyclohex-1-enecarbonitrile]: 304 nM.
For `CO[C@]1(c2ncccc2C(F)F)C=C(C#N)C(=O)C2(CC2)C1` [Compound 55, (S)-7-[3-(difluoromethyl)pyridin-2-yl]-7-methoxy-4-oxospiro[2.5]oct-5-ene-5-carbonitrile], the EC50 amounted to 14 nM.
Next, `COC1(c2ncc(C)s2)C=C(C#N)C(=O)C2(CC2)C1` (stereo not shown) [Compound 64, 7-methoxy-7-(5-methyl-1,3-thiazol-2-yl)-4-oxospiro[2.5]oct-5-ene-5-carbonitrile]: 145 nM; `COC1(c2ccc(Cl)cn2)C=C(C#N)C(=O)C2(CC2)C1` (stereo not shown) [Compound 65, 7-(5-chloropyridin-2-yl)-7-methoxy-4-oxospiro[2.5]oct-5-ene-5-carbonitrile]: 247 nM.
`CO[C@]1(c2ncc(F)cc2-c2ccc(=O)n(C)c2)C=C(C#N)C(=O)C(C)(C)C1` [Compound 74, (S)-3-[5-fluoro-3-(1-methyl-6-oxo-3-pyridyl)-2-pyridyl]-3-methoxy-5,5-dimethyl-6-oxo-cyclohexene-1-carbonitrile] yielded an EC50 of 15 nM.
`CO[C@]1(c2ncc(F)cc2-c2ccns2)C=C(C#N)C(=O)C(C)(C)C1` [Compound 80, (S)-3-(5-fluoro-3-isothiazol-5-yl-2-pyridyl)-3-methoxy-5,5-dimethyl-6-oxo-cyclohexene-1-carbonitrile] returned an EC50 of 2 nM.
Consider `COC1(c2ncc(F)cc2-c2cncc(S(C)(=O)=O)c2)C=C(C#N)C(=O)C(C)(C)C1` (stereo not shown) [Compound 96, 3-(5-fluoro-5′-(methylsulfonyl)-[3,3′-bipyridin]-2-yl)-3-methoxy-5,5-dimethyl-6-oxocyclohex-1-ene-1-carbonitrile], for which the midpoint of the response, the EC50, lay at 7 nM.
Take `CC#Cc1cccc(C2(OC)C=C(C#N)C(=O)C(C)(C)C2)n1` (stereo not shown) [Compound 103, 3-Methoxy-5,5-dimethyl-6-oxo-3-(6-(prop-1-ynyl)pyridin-2-yl)cyclohex-1-enecarbonitrile]: the EC50 stood at 77 nM.
Molecule `COC1(c2cccc(-c3c(C)noc3C)n2)C=C(C#N)C(=O)C(C)(C)C1` (stereo not shown) [Compound 105, 3-(6-(3,5-dimethylisoxazol-4-yl)pyridin-2-yl)-3-methoxy-5,5-dimethyl-6-oxocyclohex-1-ene-1-carbonitrile] came in with an EC50 of 36 nM.
The molecule `COC1(c2cccc(-c3ccnn3C)n2)C=C(C#N)C(=O)C(C)(C)C1` (stereo not shown) [Compound 106, 3-methoxy-5,5-dimethyl-3-(6-(1-methyl-1H-pyrazol-5-yl)pyridin-2-yl)-6-oxocyclohex-1-ene-1-carbonitrile] registered an EC50 of 120 nM.
